From ChEMBL document CHEMBL5576093, “Design, synthesis and evaluation of bioactivity of peptidomimetics based on chloroalkene dipeptide isosteres” (Bioorg Med Chem, 2024)

Columns and labels:
[1] = target: Amyloid-beta precursor protein (Homo sapiens) (UniProt P05067); assay: Inhibition of amyloid-beta (1 to 42 residues) (unknown origin) aggregation at 20 uM incubated for 6 hrs by ThT fluorescence based spectrofluorimetric analysis relative to control
[2] = target: Amyloid-beta precursor protein (Homo sapiens) (UniProt P05067); assay: Inhibition of amyloid-beta (1 to 42 residues) (unknown origin) aggregation at 10 uM incubated for 6 hrs by ThT fluorescence based spectrofluorimetric analysis relative to control
[3] = target: C-X-C chemokine receptor type 4 (Homo sapiens, UniProt P61073); assay: Antagonist activity at CXCR4 (unknown origin); type: functional
C-X-C chemokine receptor type 4, sequence (P61073 whole entry): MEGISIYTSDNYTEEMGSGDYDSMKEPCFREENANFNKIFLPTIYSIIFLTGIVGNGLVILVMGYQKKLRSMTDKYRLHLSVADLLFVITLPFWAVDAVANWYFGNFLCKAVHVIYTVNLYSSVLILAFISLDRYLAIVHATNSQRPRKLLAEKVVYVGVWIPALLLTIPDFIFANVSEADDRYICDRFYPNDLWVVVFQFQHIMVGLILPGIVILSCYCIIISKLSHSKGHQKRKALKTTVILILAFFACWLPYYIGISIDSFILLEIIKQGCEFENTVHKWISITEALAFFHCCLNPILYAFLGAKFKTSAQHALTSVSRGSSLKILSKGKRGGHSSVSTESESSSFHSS

Amyloid-beta precursor protein (Homo sapiens), sequence (P05067 whole entry, the tested form may be a part): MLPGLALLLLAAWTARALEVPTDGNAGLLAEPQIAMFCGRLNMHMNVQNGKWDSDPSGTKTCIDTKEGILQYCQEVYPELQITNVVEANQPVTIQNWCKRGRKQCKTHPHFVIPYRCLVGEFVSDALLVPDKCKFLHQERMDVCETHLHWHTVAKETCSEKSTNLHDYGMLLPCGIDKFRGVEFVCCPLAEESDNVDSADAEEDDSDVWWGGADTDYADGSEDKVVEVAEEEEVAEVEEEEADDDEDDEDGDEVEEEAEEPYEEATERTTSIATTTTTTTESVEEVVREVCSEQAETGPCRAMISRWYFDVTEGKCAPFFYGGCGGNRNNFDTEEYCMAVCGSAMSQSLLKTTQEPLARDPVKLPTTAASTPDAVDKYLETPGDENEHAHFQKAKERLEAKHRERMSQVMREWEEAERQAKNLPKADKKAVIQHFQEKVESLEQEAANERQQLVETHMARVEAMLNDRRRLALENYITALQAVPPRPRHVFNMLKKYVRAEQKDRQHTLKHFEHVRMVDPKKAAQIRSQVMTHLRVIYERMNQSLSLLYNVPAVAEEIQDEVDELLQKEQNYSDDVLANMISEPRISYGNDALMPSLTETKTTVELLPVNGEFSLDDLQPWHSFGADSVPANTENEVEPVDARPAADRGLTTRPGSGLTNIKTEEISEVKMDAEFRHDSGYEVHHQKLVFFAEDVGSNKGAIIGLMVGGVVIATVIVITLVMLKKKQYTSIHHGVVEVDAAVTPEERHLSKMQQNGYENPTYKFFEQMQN

Row | inhibition [1] [%] | inhibition [2] [%] | EC50 [3] [nM] | SMILES
1 | 79.6 |  |  | CC(C)C[C@H](NC(=O)[C@@H](N)CCCCN)C(=O)N[C@H](C(=O)/C(Cl)=C/N[C@@H](Cc1ccccc1)C(=O)N[C@@H](Cc1ccccc1)C(=O)O)C(C)C
2 | 20.3 | 77.9 |  | CC(C)C[C@@H]1NC(=O)[C@@H](CCCCN)NC(=O)[C@@H](Cc2ccccc2)NC(=O)[C@H](Cc2ccccc2)NC(=O)[C@@H](C(C)C)NC1=O
3 | 90.2 |  |  | CC(C)C[C@H](NC(=O)[C@@H](N)CCCCN)C(=O)N[C@H](C(=O)N[C@@H](Cc1ccccc1)C(=O)N[C@@H](Cc1ccccc1)C(=O)O)C(C)C
4 |  |  | 1780 | N=C(N)NCCC[C@@H]1NC(=O)[C@@H](Cc2ccc(O)cc2)NC(=O)CNC(=O)[C@H](Cc2ccc3ccccc3c2)NC(=O)[C@H](CCCNC(=N)N)/C=C/1F
5 | 24.6 | 30.1 |  | CC(C)C[C@H]1NC(=O)[C@H](CCCCN)NC(=O)[C@H](Cc2ccccc2)NC(=O)[C@@H](Cc2ccccc2)N/C=C(\Cl)C(=O)[C@H](C(C)C)NC1=O
6 |  |  | 1460 | N=C(N)NCCC[C@H]1/C=C/[C@@H](CCCNC(=N)N)C(=O)N[C@@H](Cc2ccc3ccccc3c2)C(=O)NCC(=O)N[C@H](Cc2ccc(O)cc2)C(=O)N1
7 | 36 |  |  | O=c1c(O)c(-c2ccc(O)cc2O)oc2cc(O)cc(O)c12
